From US20240374618A1, “COMPOSITION OF TANNIC ACID AND VITAMIN D AND METHODS OF USE” (Nulastin, Inc., priority 2021, published 2024)

How the values were obtained:
human dermal fibroblasts = assay: Immunodetection of elastin in cultured human dermal fibroblasts; assay type: cell-based; settings: for elastin concentration: FIGS. 1A-1C
Procedure: Biological effects of tannic acid in the presence of hyaluronic acid or ferulic acid were tested on dermal fibroblasts derived from punch biopsies of healthy skin. All fibroblasts were isolated by allowing migration out of skin explants and passaged by trypsinization. Fibroblasts were maintained in alpha-minimum essential medium supplemented with 20 mM HEPES, 1% antibiotics and antimycotics, 1% L-Glutamate and 2% fetal bovine serum (FBS). Cells were plated (50×10^5 cells/dish) to reach confluency and were cultured for 7 days in the presence or absence of hyaluronic acid (0.1%), ferulic acid (5 μg/mL), tannic acid (2 μg/mL), or a combination thereof.
Cell cultures prepared according to Example 1 maintained in the presence or absence of tannic acid, hyaluronic acid, or ferulic acid were fixed in cold 100% methanol at […] for detection of elastin or in 4% paraformaldehyde at room temperature for detection of collagen I. The multiple parallel cultures were incubated with […] of polyclonal antibody to tropoelastin (Elastin Products, Owensville, MI), or polyclonal antibody to collagen type I (Chemicon, Temecula, CA). Cultures were incubated with the respective fluorescein-conjugated goat anti-rabbit, goat anti-mouse, or rabbit anti-goat secondary antibodies. Nuclei were counter stained with propidium iodide (Sigma, St. Louis, MO). All cultures were examined with a Nikon Eclipse E1000 microscope attached to a cooled CCD camera (QImaging, Retiga EX) and analyzed with the computer-generated morphometric analysis system, in which the Image-Pro Plus software (Media Cybernetics, Silver Springs, MD) estimates the proportion of areas marked with green fluorescence, in relation to the entire (1 square mm) analyzed field.
Cultured human dermal fibroblasts were grown in the presence or absence of tannic acid at low concentration (2 μg/mL) and high concentration (20 μg/mL). Immunodetection of elastin was performed as described in Example 2.
(§1) Cultured human dermal fibroblasts were grown in the presence of or absence of vitamin D (10^−7 M), tannic acid ([…]), or a combination of vitamin D and tannic acid (2 μg/mL) (FIGS. 2A-2B and FIGS. 3A-3C). Immunodetection of elastin was performed as described above.
Cultured human dermal fibroblasts were grown in the presence of or absence hyaluronic acid (0.1%), tannic acid (2 μg/mL), or a combination of hyaluronic acid (0.1%) and tannic acid (2 μg/mL). Immunodetection of elastin was performed as described above.
Cultured human dermal fibroblasts were grown in the presence or absence of ferulic acid (5 μg/mL), tannic acid (2 μg/mL), or a combination of ferulic acid (5 μg/mL) and tannic acid (2 μg/mL). Immunodetection of elastin and collagen I was performed as described above. Results are shown in FIGS. 5A-5C, and FIGS. 6A-6B for elastin and FIGS. 7A-7C and FIG. 8 for collagen.
Cultured human dermal fibroblasts were grown in the presence or absence of ferulic acid (20 μM), tannic acid (2 μg/mL), or copper sulfate (2 μM). Fibroblasts were also grown in presence of a combination of ferulic acid (20 μM) and copper sulfate (2 μM), a combination of ferulic acid (20 μM) and tannic acid (2 μg/mL), and a combination of tannic acid (2 μg/mL) and copper sulfate (2 μM). Immunodetection of elastin was performed as described above.

fibroblast cultures = assay: Amount of tropoelastin in fibroblast cultures measured using PCR; assay type: cell-based, human; settings: tannic acid added to cultures that contained vitamin D3; PCR after 18 hours; FIG. 2A
Procedure: FIG. 2A depicts the amount of tropoelastin in fibroblast cultures measured using PCR after 18 hours.
as §1

vitamin D
elastin production (human dermal fibroblasts; vitamin D (10^−7 M) alone): inhibition of elastin production

O=C(OC[C@H]1O[C@@H](OC(=O)c2cc(O)c(O)c(OC(=O)c3cc(O)c(O)c(O)c3)c2)[C@H](OC(=O)c2cc(O)c(O)c(OC(=O)c3cc(O)c(O)c(O)c3)c2)[C@@H](OC(=O)c2cc(O)c(O)c(OC(=O)c3cc(O)c(O)c(O)c3)c2)[C@@H]1OC(=O)c1cc(O)c(O)c(OC(=O)c2cc(O)c(O)c(O)c2)c1)c1cc(O)c(O)c(OC(=O)c2cc(O)c(O)c(O)c2)c1 [tannic acid]
amount of tropoelastin (fibroblast cultures): increased the amount of tropoelastin | net deposition of elastin (human dermal fibroblasts; tannic acid (2 μg/mL) added to hyaluronic acid (0.1%)): improvement in net deposition of elastin | net deposition of elastin (human dermal fibroblasts; tannic acid (2 μg/mL) added to vitamin D (10^−7 M)): improvement in net deposition of elastin | production of elastin (human dermal fibroblasts; tannic acid (2 μg/mL) in the presence of ferulic acid (5 μg/mL)): improved production of elastin even in the presence of ferulic acid | elastin concentration (human dermal fibroblasts; tannic acid at high concentration (20 μg/mL)): caused elastosis | elastin concentration (human dermal fibroblasts; tannic acid at low concentration (2 μg/mL)): improved elastin concentration

hyaluronic acid
elastin production (human dermal fibroblasts; hyaluronic acid (0.1%) alone): inhibition of elastin production
